# Columns and labels:
# [1] = tested on: young tomato plants (13 cm, 3 leaves, JUMBO hybrid); test: Phytotoxicity on young tomato plants; assay type: in vivo
# Protocol: For both types of crop, 4 treatments were performed on 20 plants: • untreated control • 360 kg/ha of DMDS • 540 kg/ha of DMDS • 720 kg/ha of DMDS
# Five days after the treatment, the young plants are transplanted into pots 20 cm in diameter and 35 cm in height.
# The observations relating to the number of leaves per plant and the visual state of the plants are carried out 15 and 41 days after the transplantation: […]
# [2] = tested on: lettuce (variety Sprintia); test: Phytotoxicity on lettuce, in a greenhouse; assay type: in vivo; settings: 150 kg/ha (formulation A)
# Source text: Absence of phytotoxicity on lettuce of DMDS, applied at 150 kg/ha, in the open, in a greenhouse.
# Lettuce variety: Sprintia
# Treatment: DMDS is applied in the form of formulation A with the aid of a jet sprayer, and then incorporated over a depth of about 5 cm with a rotary hoe. The soil is then covered with a black polyethylene film.
# Planting: 7 days after the treatment, at the rate of 160 000 plants/ha
# Harvesting: 2 months and 20 days after planting.
# [3] = tested on: termite (Reticulitermes santonensis); test: Insecticidal in vitro fumigation test on termites; assay type: in vivo; settings: 24 hours of fumigation, mortality counted at the end of 48 hours; 25° C.
# Protocol: Dead wood infested with termites was collected from the soil on ground occupied by a colony. This dead wood serves as breeding medium. The breeding is maintained at a constant 25° C. and a day/night 12:12 alternation.
# The insects are removed in an amount of 2 soldiers per 28 workers.
# The tests are carried out in hermetically closed glass jars having a volume of 3 L and containing the insects.
# The product to be tested is introduced through a hole 2 mm in diameter with the aid of a micropipette and deposited on a filter paper (2×5 cm: Whatman No. 1) suspended at the centre of the jar where it migrates by capillarity and vaporizes rapidly. The hole is hermetically closed again as quickly as possible.
# The jars are placed for 24 hours in an incubator under the same breeding conditions.
# At the end of 24 hours, after a few instants of aeration, a first count is made and then the insects are placed again under breeding conditions for another 24 hours. The counting of the mortality is therefore carried out at the end of 48 hours. […] Each test is carried out on a population of 30 to 50 insects and is accompanied by a control without treatment. Several repeats are carried out with doses close to the LC50.
# [4] = Diffusion of DMDS into the soil (column of earth, gas chromatography); assay type: physicochemical
# Protocol: The rate of diffusion of DMDS was studied by filling a sealed thermal glass chamber of 3.3 litres and 40 cm in height with 2.5 litres of earth (that is 33 cm) obtained from the Garonne valley (sandy-muddy soil containing 1.6% of organic matter); the DMDS was deposited at the surface of the earth in 2 doses: 300 and 800 kg/ha, that is, considering a disinfection over 30 cm, doses of 100 and 266.6 g/m^3 of soil. There are then measured by gas chromatography, as a function of time (in hours), the concentrations of DMDS in gaseous form (in g/m^3) in the top free volume of the chamber (point A) and at 11 cm (point B), 22 cm (point C) and 33 cm (point D) below the level of the earth by means of 3 openings equipped with sealed septums on the side of the chamber; the variation in the concentration as a function of time for the 4 measurement points is thus obtained, as shown in Table 2 in the case of the 800 kg/ha dose.
# The product CT of the concentrations C by the time of measurement T is another essential data which indicates the cumulative doses of DMDS to which are subjected the pathogenic organisms which may be present at the different measurement points. The CT values in gh/m^3 indicated in Table 3 are thus found for the two concentrations tested.
# [5] = tested on: eggs of nematodes (Meloidogyne arenaria); test: Ovicidal activity on the eggs of nematodes (number of hatchings); assay type: in vivo
# Protocol: The breeding of the nematodes was carried out on tomato plants. The tests were carried out with, aqueous solutions of DMDS at 0.0001%, 0.1%, 1% and 5% by mass, of DPDS at 1%, 5% and 10% by mass, and of allicin at 0.0003%, 0.0015% and 0.003% by mass, compared with a control consisting of pure water, and repeated five times. The ovicidal activity was also evaluated according to the same modalities, by counting the number of hatchings after 5 to 20 days following exposure to the products.
smiles,measurement,setting,value
"CSSC [DMDS, dimethyl disulphide]",Visual symptom of phytotoxicity,"[1]; 360, 540, 720 kg/ha, 15 and 41 days after transplantation",no visual symptom of phytotoxicity
same,Average number of leaves per plant,"[1]; 360 kg/ha DMDS (formulation A), after 15 days",5.3
same,Average number of leaves per plant,"[1]; 360 kg/ha DMDS (formulation A), after 41 days",9.6
same,Average number of leaves per plant,"[1]; 540 kg/ha DMDS (formulation A), after 15 days",5.3
same,Average number of leaves per plant,"[1]; 540 kg/ha DMDS (formulation A), after 41 days",9.4
same,Average number of leaves per plant,"[1]; 720 kg/ha DMDS (formulation A), after 15 days",5.7
same,Average number of leaves per plant,"[1]; 720 kg/ha DMDS (formulation A), after 41 days",9.8
same,Difference in number of leaves between untreated control and treated plants,[1]; regardless of the concentration tested (360-720 kg/ha),no significant difference
same,Visual observations on the field: sign of phytotoxicity,[2]; 1 and 2 months after planting,no sign of phytotoxicity
same,Average weight of the lettuce at harvest,"[2]; harvest 2 months and 20 days after planting, control 490 g",505 g
same,LC50 (Probits method),[3],0.095 g × 24 h/m^3
same,CT (product of concentrations C by time T),"[4]; 300 kg/ha, A (0 cm)",3187 gh/m^3
same,CT (product of concentrations C by time T),"[4]; 300 kg/ha, B (−11 cm)",2737 gh/m^3
same,CT (product of concentrations C by time T),"[4]; 300 kg/ha, C (−22 cm)",2753 gh/m^3
same,CT (product of concentrations C by time T),"[4]; 300 kg/ha, D (−33 cm)",2210 gh/m^3
same,DMDS concentration in gaseous form,"[4]; 800 kg/ha dose, 0 h, A (0 cm)",0 g/m^3
same,DMDS concentration in gaseous form,"[4]; 800 kg/ha dose, 0 h, B (−11 cm)",0 g/m^3
same,DMDS concentration in gaseous form,"[4]; 800 kg/ha dose, 0 h, C (−22 cm)",0 g/m^3
same,DMDS concentration in gaseous form,"[4]; 800 kg/ha dose, 0 h, D (−33 cm)",0 g/m^3
same,Time for the DMDS concentration to be homogeneous in the entire thickness of the column of earth,"[4]; 800 kg/ha dose, 33 cm of earth",approximately 24 hours
same,DMDS concentration in gaseous form,"[4]; 800 kg/ha dose, 1 h, A (0 cm)",144.9 g/m^3
same,DMDS concentration in gaseous form,"[4]; 800 kg/ha dose, 1 h, B (−11 cm)",76.6 g/m^3
same,DMDS concentration in gaseous form,"[4]; 800 kg/ha dose, 1 h, C (−22 cm)",3 g/m^3
same,DMDS concentration in gaseous form,"[4]; 800 kg/ha dose, 1 h, D (−33 cm)",0 g/m^3
same,DMDS concentration in gaseous form,"[4]; 800 kg/ha dose, 3 h, A (0 cm)",152.7 g/m^3
same,DMDS concentration in gaseous form,"[4]; 800 kg/ha dose, 3 h, B (−11 cm)",73.9 g/m^3
same,DMDS concentration in gaseous form,"[4]; 800 kg/ha dose, 3 h, C (−22 cm)",5.1 g/m^3
same,DMDS concentration in gaseous form,"[4]; 800 kg/ha dose, 3 h, D (−33 cm)",0.3 g/m^3
same,DMDS concentration in gaseous form,"[4]; 800 kg/ha dose, 5 h, A (0 cm)",96.3 g/m^3
same,DMDS concentration in gaseous form,"[4]; 800 kg/ha dose, 5 h, B (−11 cm)",63.8 g/m^3
same,DMDS concentration in gaseous form,"[4]; 800 kg/ha dose, 5 h, C (−22 cm)",48.4 g/m^3
same,DMDS concentration in gaseous form,"[4]; 800 kg/ha dose, 5 h, D (−33 cm)",21.5 g/m^3
same,DMDS concentration in gaseous form,"[4]; 800 kg/ha dose, 5.5 h, A (0 cm)",123.7 g/m^3
same,DMDS concentration in gaseous form,"[4]; 800 kg/ha dose, 5.5 h, B (−11 cm)",91.4 g/m^3
same,DMDS concentration in gaseous form,"[4]; 800 kg/ha dose, 5.5 h, C (−22 cm)",58.3 g/m^3
same,DMDS concentration in gaseous form,"[4]; 800 kg/ha dose, 5.5 h, D (−33 cm)",29.4 g/m^3
same,DMDS concentration in gaseous form,"[4]; 800 kg/ha dose, 24 h, A (0 cm)",32.7 g/m^3
same,DMDS concentration in gaseous form,"[4]; 800 kg/ha dose, 24 h, B (−11 cm)",30.2 g/m^3
same,DMDS concentration in gaseous form,"[4]; 800 kg/ha dose, 24 h, C (−22 cm)",40.1 g/m^3
same,DMDS concentration in gaseous form,"[4]; 800 kg/ha dose, 24 h, D (−33 cm)",34.4 g/m^3
same,DMDS concentration in gaseous form,"[4]; 800 kg/ha dose, 96 h, A (0 cm)",11.8 g/m^3
same,DMDS concentration in gaseous form,"[4]; 800 kg/ha dose, 96 h, B (−11 cm)",11.5 g/m^3
same,DMDS concentration in gaseous form,"[4]; 800 kg/ha dose, 96 h, C (−22 cm)",12.9 g/m^3
same,DMDS concentration in gaseous form,"[4]; 800 kg/ha dose, 96 h, D (−33 cm)",14.6 g/m^3
same,CT (product of concentrations C by time T),"[4]; 800 kg/ha, A (0 cm)",4145 gh/m^3
same,CT (product of concentrations C by time T),"[4]; 800 kg/ha, B (−11 cm)",3327 gh/m^3
same,CT (product of concentrations C by time T),"[4]; 800 kg/ha, C (−22 cm)",3276 gh/m^3
same,CT (product of concentrations C by time T),"[4]; 800 kg/ha, D (−33 cm)",2809 gh/m^3
same,"CT values, order of magnitude",[4]; dose of 300 kg/ha,~2 500 gh/m^3
same,"CT values, order of magnitude",[4]; dose of 800 kg/ha,~3 000 gh/m^3
same,Ovicidal activity,[5]; 1-10 % by mass,very high ovicidal activity
same,Number of hatchings (cumulative),"[5]; concentration by mass 1 %, D5, control 141",7
same,Number of hatchings (cumulative),"[5]; concentration by mass 1 %, D10, control 179",7
same,Number of hatchings (cumulative),"[5]; concentration by mass 1 %, D13, control 184",7
same,Number of hatchings (cumulative),"[5]; concentration by mass 1 %, D17, control 184",7
same,Number of hatchings (cumulative),"[5]; concentration by mass 5 %, D5, control 141",2
same,Number of hatchings (cumulative),"[5]; concentration by mass 5 %, D10, control 179",2
same,Number of hatchings (cumulative),"[5]; concentration by mass 5 %, D13, control 184",5
same,Number of hatchings (cumulative),"[5]; concentration by mass 5 %, D17, control 184",5
same,Number of hatchings (cumulative),"[5]; concentration by mass 10 %, D5, control 141",0
same,Number of hatchings (cumulative),"[5]; concentration by mass 10 %, D10, control 179",2
same,Number of hatchings (cumulative),"[5]; concentration by mass 10 %, D13, control 184",5
same,Number of hatchings (cumulative),"[5]; concentration by mass 10 %, D17, control 184",5
same,Reduction in the number of hatchings,[5]; on the last day of observation,approximately 97%
